Measurements as given in US12599672B2, “KRAS proteolysis targeting chimeras” (PAQ Therapeutics Inc., priority 2023, dated 2026).

What was measured:
Assay type in all cases: cell-based
KRAS G12D = molecular target: T1, KRAS G12D (Homo sapiens, UniProt P01116, G12D); experiment: KRAS G12D HiBit assay; conditions: AsPc-1-KRAS (G12D)-HiBit-KI cell, compound treatment for 24 hours, absolute DC50; class symbols
T1 construct: AsPc-1-KRAS (G12D)-HiBit-KI cell (Pharmaron); host or cells: AsPc-1-KRAS (G12D)-HiBit-KI cells (HiBiT knock-in at the endogenous KRAS locus)
Procedure, shortened: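 HiBiT luminescence, detected by adding lytic buffer, substrate and LgBiT protein, served as the KRAS G12D read-out. Compounds, serially diluted 3-fold over 10 points from 0.3 mM DMSO stock, were on cells for 24 h; percent inhibition normalized to cells given 0.1% DMSO only.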

KRAS = molecular target: T2, KRAS (Homo sapiens, UniProt P01116); experiment: KRASamp MSD assay; conditions: KE39 (KRAS amplified) cells, treated with test compounds for 24 hr, MSD readout of KRAS degradation
T2 construct: endogenous in cells; host or cells: KE39 (KRAS amplified) cells
Procedure, shortened: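 Degradation DC50 derived by curve fitting, with KRAS levels quantified by MSD electrochemiluminescence (capture/detection antibodies, recombinant WT KRAS standard). Lysates prepared from KE39 cells (KRAS amplified) exposed to test compounds for 24 hr.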

KRAS G12V = molecular target: T3, KRAS G12V (Homo sapiens, UniProt P01116, G12V); experiment: KRAS G12V HiBit assay; conditions: SW620-KRAS (G12V)-HiBit-KI cells, compound treatment for 24 hours, class symbols
T3 construct: SW620-KRAS (G12V)-HiBit-KI cell (Pharmaron); host or cells: SW620-KRAS (G12V)-HiBit-KI cells (HiBiT knock-in at the endogenous KRAS locus)
Procedure, shortened: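 Luminescence from lytic Nano-Glo HiBiT detection with LgBiT read KRAS G12V levels after 24 h compound exposure. Dilutions were 10-point, 3-fold, from a 0.3 mM DMSO stock. Degradation activity was normalised to cells given 0.1% DMSO alone.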

T2 sequence (P01116 1-188 isoform P01116-2): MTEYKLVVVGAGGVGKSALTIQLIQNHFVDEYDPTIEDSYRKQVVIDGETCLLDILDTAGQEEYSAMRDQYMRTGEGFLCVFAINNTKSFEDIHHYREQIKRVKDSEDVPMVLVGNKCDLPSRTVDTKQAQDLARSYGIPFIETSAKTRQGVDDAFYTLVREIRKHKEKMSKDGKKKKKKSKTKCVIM
T1 sequence (P01116 1-188 isoform P01116-2 G12D): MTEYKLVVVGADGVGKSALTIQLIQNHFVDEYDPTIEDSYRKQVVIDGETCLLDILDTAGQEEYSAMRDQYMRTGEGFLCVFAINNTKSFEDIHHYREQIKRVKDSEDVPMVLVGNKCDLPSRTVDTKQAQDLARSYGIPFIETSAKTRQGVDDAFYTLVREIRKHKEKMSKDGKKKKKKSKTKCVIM
T3 sequence (P01116 1-188 isoform P01116-2 G12V): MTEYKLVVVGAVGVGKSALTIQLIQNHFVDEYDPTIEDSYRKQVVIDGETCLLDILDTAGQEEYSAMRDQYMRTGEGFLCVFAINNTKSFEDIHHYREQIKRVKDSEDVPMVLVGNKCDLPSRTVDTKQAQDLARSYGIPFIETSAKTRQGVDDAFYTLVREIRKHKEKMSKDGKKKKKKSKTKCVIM

Q: Which DC50 (KRAS G12D) does the source give for `Cn1c(=O)n(C2CCC(=O)NC2=O)c2ccc(N3CCC(CN4CCN(C(=O)OC[C@@H]5CC[C@]6(COc7nc(N8CCC[C@@](C)(O)C8)c8cnc(-c9cc(O)cc%10ccc(F)cc9%10)c(F)c8n7)CCCN56)CC4)CC3)cc21` (stereo partly drawn) [Compound 445, ((3S,7aS)-7a-(((8-fluoro-7-(7-fluoro-3-hydroxynaphthalen-1-yl)-4-((R)-3-hydroxy-3-methylpiperidin-1-yl)pyrido[4,3-d]pyrimidin-2-yl)oxy)methyl)hexahydro-1H-pyrrolizin-3-yl)methyl 4-((1-(1-(2,6-dioxopiperidin-3-yl)-3-methyl-2-oxo-2,3-dihydro-1H-benzo[d]imidazol-5-yl)piperidin-4-yl)methyl)piperazine-1-carboxylate] here?
A: Its DC50 is < 100 nM.

Q: What about the DC50 (KRAS) of the same molecule?
A: The DC50 was < 1 nM.

Q: What about the DC50 (KRAS G12V) of the same molecule?
A: Its DC50 is < 10 nM.

Q: Which DC50 (KRAS G12D) does the source give for `Cn1c(=O)n(C2CCC(=O)NC2=O)c2ccc(C3CCN(CC4(F)CCN(C(=O)OC[C@@H]5CC[C@]6(COc7nc(N8CCC[C@@](C)(O)C8)c8cnc(-c9cc(O)cc%10ccc(F)cc9%10)c(F)c8n7)CCCN56)CC4)CC3)cc21` (stereo partly drawn) [Compound 446, ((3S,7aS)-7a-(((8-fluoro-7-(7-fluoro-3-hydroxynaphthalen-1-yl)-4-((R)-3-hydroxy-3-methylpiperidin-1-yl)pyrido[4,3-d]pyrimidin-2-yl)oxy)methyl)hexahydro-1H-pyrrolizin-3-yl)methyl 4-((4-(1-(2,6-dioxopiperidin-3-yl)-3-methyl-2-oxo-2,3-dihydro-1H-benzo[d]imidazol-5-yl)piperidin-1-yl)methyl)-4-fluoropiperidine-1-carboxylate] here?
A: Its DC50 is < 100 nM.

Q: What about the DC50 (KRAS) of the same molecule?
A: The DC50 was < 1 nM.

Q: And the DC50 (KRAS G12V)?
A: The DC50 was < 10 nM.

Q: With `Cn1c(=O)n(C2CCC(=O)NC2=O)c2cc(F)c(C3CCN(CC4CCN(C(=O)OC[C@@H]5CC[C@]6(COc7nc(N8CCC[C@@](C)(O)C8)c8cnc(-c9cc(O)cc%10ccc(F)cc9%10)c(F)c8n7)CCCN56)CC4)CC3)cc21` (stereo partly drawn) [Compound 447, ((3S,7aS)-7a-(((8-fluoro-7-(7-fluoro-3-hydroxynaphthalen-1-yl)-4-((R)-3-hydroxy-3-methylpiperidin-1-yl)pyrido[4,3-d]pyrimidin-2-yl)oxy)methyl)hexahydro-1H-pyrrolizin-3-yl)methyl 4-((4-(1-(2,6-dioxopiperidin-3-yl)-6-fluoro-3-methyl-2-oxo-2,3-dihydro-1H-benzo[d]imidazol-5-yl)piperidin-1-yl)methyl)piperidine-1-carboxylate] as the molecule, how does the DC50 (KRAS G12D) read?
A: Its DC50 is < 100 nM.

Q: What about the DC50 (KRAS) of the same molecule?
A: The DC50 was < 1 nM.

Q: What about the DC50 (KRAS G12V) of the same molecule?
A: Its DC50 is < 10 nM.

Q: How did the DC50 (KRAS G12D) turn out when `CCc1c(F)ccc2cc(O)cc(-c3ncc4c(N5CCC[C@@](C)(O)C5)nc(OC[C@@]56CCCN5[C@H](COC(=O)N5CC7(CCC(CN8CCC(c9ccc%10c(c9)n(C)c(=O)n%10C9CCC(=O)NC9=O)CC8)CC7)C5)CC6)nc4c3F)c12` (stereo partly drawn) [Compound 448, ((3S,7aS)-7a-(((7-(8-ethyl-7-fluoro-3-hydroxynaphthalen-1-yl)-8-fluoro-4-((R)-3-hydroxy-3-methylpiperidin-1-yl)pyrido[4,3-d]pyrimidin-2-yl)oxy)methyl)hexahydro-1H-pyrrolizin-3-yl)methyl 7-((4-(1-(2,6-dioxopiperidin-3-yl)-3-methyl-2-oxo-2,3-dihydro-1H-benzo[d]imidazol-5-yl)piperidin-1-yl)methyl)-2-azaspiro[3.5]nonane-2-carboxylate] was run?
A: The DC50 was < 100 nM.

Q: And the DC50 (KRAS)?
A: Its DC50 is < 1 nM.

Q: What about the DC50 (KRAS G12V) of the same molecule?
A: Its DC50 is < 10 nM.

Q: How did the DC50 (KRAS G12D) turn out when `CCc1c(F)ccc2cc(O)cc(-c3ncc4c(N5CCC[C@@](C)(O)C5)nc(OC[C@@]56CCCN5[C@H](COC(=O)Nc5ccc(CN7CCC(c8ccc9c(c8)n(C)c(=O)n9C8CCC(=O)NC8=O)CC7)cc5)CC6)nc4c3F)c12` (stereo partly drawn) [Compound 450, ((3S,7aS)-7a-(((7-(8-ethyl-7-fluoro-3-hydroxynaphthalen-1-yl)-8-fluoro-4-((R)-3-hydroxy-3-methylpiperidin-1-yl)pyrido[4,3-d]pyrimidin-2-yl)oxy)methyl)hexahydro-1H-pyrrolizin-3-yl)methyl (4-((4-(1-(2,6-dioxopiperidin-3-yl)-3-methyl-2-oxo-2,3-dihydro-1H-benzo[d]imidazol-5-yl)piperidin-1-yl)methyl)phenyl)carbamate] was run?
A: Its DC50 is < 100 nM.

Q: What about the DC50 (KRAS) of the same molecule?
A: Its DC50 is < 1 nM.

Q: What about the DC50 (KRAS G12V) of the same molecule?
A: The DC50 was < 10 nM.

Q: Which results are given for `CCc1c(F)ccc2cc(O)cc(-c3ncc4c(N5CCC[C@@](C)(O)C5)nc(OC[C@@]56CCCN5[C@H](COC(=O)Nc5ccc(N7CCC(c8ccc9c(c8)n(C)c(=O)n9C8CCC(=O)NC8=O)CC7)cc5)CC6)nc4c3F)c12` (stereo partly drawn) [Compound 451, ((3S,7aS)-7a-(((7-(8-ethyl-7-fluoro-3-hydroxynaphthalen-1-yl)-8-fluoro-4-((R)-3-hydroxy-3-methylpiperidin-1-yl)pyrido[4,3-d]pyrimidin-2-yl)oxy)methyl)hexahydro-1H-pyrrolizin-3-yl)methyl (4-(4-(1-(2,6-dioxopiperidin-3-yl)-3-methyl-2-oxo-2,3-dihydro-1H-benzo[d]imidazol-5-yl)piperidin-1-yl)phenyl)carbamate]?
A: DC50 (KRAS G12D): < 100 nM; DC50 (KRAS): < 1 nM; DC50 (KRAS G12V): < 10 nM

Q: Which results are given for `CCc1c(F)ccc2cc(O)cc(-c3ncc4c(N5CCC[C@@](C)(O)C5)nc(OC[C@@]56CCCN5[C@H](COC(=O)N5CC7(CCN(CC8CCN(c9ccc%10c(c9)n(C)c(=O)n%10C9CCC(=O)NC9=O)CC8)CC7)C5)CC6)nc4c3F)c12` (stereo partly drawn) [Compound 452, ((3S,7aS)-7a-(((7-(8-ethyl-7-fluoro-3-hydroxynaphthalen-1-yl)-8-fluoro-4-((R)-3-hydroxy-3-methylpiperidin-1-yl)pyrido[4,3-d]pyrimidin-2-yl)oxy)methyl)hexahydro-1H-pyrrolizin-3-yl)methyl 7-((1-(1-(2,6-dioxopiperidin-3-yl)-3-methyl-2-oxo-2,3-dihydro-1H-benzo[d]imidazol-5-yl)piperidin-4-yl)methyl)-2,7-diazaspiro[3.5]nonane-2-carboxylate]?
A: DC50 (KRAS G12D): < 100 nM; DC50 (KRAS): < 1 nM; DC50 (KRAS G12V): < 10 nM

Q: For `CCc1c(F)ccc2cc(O)cc(-c3ncc4c(N5CCC[C@@](C)(O)C5)nc(OC[C@@]56CCCN5[C@H](COC(=O)N5CC7(CCN(CC#Cc8ccc9c(c8)n(C)c(=O)n9C8CCC(=O)NC8=O)CC7)C5)CC6)nc4c3F)c12` (stereo partly drawn) [Compound 453, ((3S,7aS)-7a-(((7-(8-Ethyl-7-fluoro-3-hydroxynaphthalen-1-yl)-8-fluoro-4-((R)-3-hydroxy-3-methylpiperidin-1-yl)pyrido[4,3-d]pyrimidin-2-yl)oxy)methyl)hexahydro-1H-pyrrolizin-3-yl)methyl 7-(3-(1-(2,6-dioxopiperidin-3-yl)-3-methyl-2-oxo-2,3-dihydro-1H-benzo[d]imidazol-5-yl)prop-2-yn-1-yl)-2,7-diazaspiro[3.5]nonane-2-carboxylate], which DC50 (KRAS G12D) is on record?
A: The DC50 was < 100 nM.

Q: What about the DC50 (KRAS) of the same molecule?
A: Its DC50 is < 1 nM.

Q: What about the DC50 (KRAS G12V) of the same molecule?
A: Its DC50 is < 10 nM.

Q: How did the DC50 (KRAS G12D) turn out when `C#Cc1c(F)ccc2cc(O)cc(-c3ncc4c(N5CCC[C@@](C)(O)C5)nc(OC[C@@]56CCCN5[C@H](COC(=O)N5CCC7(CCC(CN8CCC(c9ccc%10c(c9)n(C)c(=O)n%10C9CCC(=O)NC9=O)CC8)CC7)C5)CC6)nc4c3F)c12` (stereo partly drawn) [Compound 454] was run?
A: Its DC50 is < 100 nM.

Q: And the DC50 (KRAS)?
A: The DC50 was < 1 nM.

Q: And the DC50 (KRAS G12V)?
A: The DC50 was < 10 nM.

Q: Which results are given for `CCc1c(F)ccc2cc(O)cc(-c3ncc4c(N5CCC[C@@](C)(O)C5)nc(OC[C@@]56CCCN5[C@H](COC(=O)N5CCC7(CCC(N8CCC(c9ccc%10c(c9)n(C)c(=O)n%10C9CCC(=O)NC9=O)CC8)C7)CC5)CC6)nc4c3F)c12` (stereo partly drawn) [Compound 455, ((3S,7aS)-7a-(((7-(8-ethyl-7-fluoro-3-hydroxynaphthalen-1-yl)-8-fluoro-4-((R)-3-hydroxy-3-methylpiperidin-1-yl)pyrido[4,3-d]pyrimidin-2-yl)oxy)methyl)hexahydro-1H-pyrrolizin-3-yl)methyl 2-(4-(1-(2,6-dioxopiperidin-3-yl)-3-methyl-2-oxo-2,3-dihydro-1H-benzo[d]imidazol-5-yl)piperidin-1-yl)-8-azaspiro[4.5]decane-8-carboxylate]?
A: DC50 (KRAS G12D): < 100 nM; DC50 (KRAS): < 1 nM; DC50 (KRAS G12V): < 10 nM

Q: `CCc1c(F)ccc2cc(O)cc(-c3ncc4c(N5CCC[C@@](C)(O)C5)nc(OC[C@@]56CCCN5[C@H](COC(=O)N5CCC7(CC5)CCN(C5CCN(c8ccc9c(c8)n(C)c(=O)n9C8CCC(=O)NC8=O)CC5)C7)CC6)nc4c3F)c12` (stereo partly drawn) [Compound 456, ((3S,7aS)-7a-(((7-(8-ethyl-7-fluoro-3-hydroxynaphthalen-1-yl)-8-fluoro-4-((R)-3-hydroxy-3-methylpiperidin-1-yl)pyrido[4,3-d]pyrimidin-2-yl)oxy)methyl)hexahydro-1H-pyrrolizin-3-yl)methyl 2-(1-(1-(2,6-dioxopiperidin-3-yl)-3-methyl-2-oxo-2,3-dihydro-1H-benzo[d]imidazol-5-yl)piperidin-4-yl)-2,8-diazaspiro[4.5]decane-8-carboxylate] was tested. Which DC50 (KRAS G12D) did it give?
A: Its DC50 is < 100 nM.

Q: And the DC50 (KRAS)?
A: The DC50 was 1 to 10 nM.

Q: And the DC50 (KRAS G12V)?
A: Its DC50 is < 10 nM.
